Data as given in patent US20090253755A1, “N-[(PYRIDIN-2-YL) METHOXY] BENZAMIDE DERIVATIVES AND RELATED COMPOUNDS AS FUNGICIDES” (Bayer Cropscience SA, priority 2006, published 2009).

Tested on: Alternaria alternata
Experiment: Cell test on Alternaria alternata
Assay type: cell-based
Settings: under similar conditions (cell test, 2 ppm)
Procedure: Cell Test on Alternaria alternata
The growth of Alternaria alternata is performed on PDA medium at 20° C. under black light during 14 days. The PDA medium is prepared by mixing 39 grams of PDA (Merck) in 1 liter of demineralized water.
The medium is sterilized by autoclave 15 minutes at 121° C. After 14 days of growth, the spores of Alternaria alternata are recovered in sterilized water and the concentration of spores adjusted to 10^6 spores per ml.
The compounds is solubilized in DMSO and added to sterile liquid glucose/mycopeptone medium (14.6 g/l of D-glucose, 7.1 g/l of mycological peptone (Oxoid) and 1.4 g/l of yeast extract (Merck)) at a concentration of 2 ppm.
The medium is inoculated with the spore suspension at a concentration of 10^5 spores per ml.
The efficacy of the compounds is assessed by OD measurement at 620 nm after 5 days at 20° C. in comparison with a control.

## O=C(NOCc1ncc(C(F)(F)F)cc1Cl)c1c(Cl)cccc1Cl [Compound 501, 2,6-dichloro-N-{[3-chloro-5-(trifluoromethyl)pyridin-2-yl]methoxy}benzamide]
  activity: did not show any activity

## O=C(NOCc1ncc(C(F)(F)F)cc1Cl)c1c(F)cccc1F [Compound 502, N-{[3-chloro-5-(trifluoromethyl)pyridin-2-yl]methoxy}-2,6-difluorobenzamide]
  activity: did not show any activity
